According to PubChem BioAssay (NCI):
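Test compounds were applied to cells in 96-well plates for 48 hours at 5 doses. At the GI50, growth is halved. TGI: total growth inhibition.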

Assays:
Assay in all cases: DTP human tumour cell line panel, 48 h
SNB-78 CNS = system: SNB-78 CNS
M19-MEL melanoma = system: M19-MEL melanoma
DLD-1 colon = system: DLD-1 colon
DMS 273 small cell lung = system: DMS 273 small cell lung
BT-549 breast = system: BT-549 breast
MDA-MB-231 breast = system: MDA-MB-231 breast
NCI/ADR-RES ovarian = system: NCI/ADR-RES ovarian
DU-145 prostate = system: DU-145 prostate
KM20L2 colon = system: KM20L2 colon

O=C1CCCC1NC(=O)C(F)(F)F (centres undefined)
TGI (SNB-78 CNS): > 100 µM | TGI (M19-MEL melanoma): > 100 µM | TGI (DLD-1 colon): > 100 µM | TGI (DMS 273 small cell lung): > 100 µM

N#Cc1nc2cc(F)c(F)cc2nc1-c1ccc(Cl)cc1
GI50 (BT-549 breast): 19.8 µM | TGI (BT-549 breast): 40.3 µM | TGI (MDA-MB-231 breast): 5.3 µM | GI50 (NCI/ADR-RES ovarian): 10.3 µM | TGI (NCI/ADR-RES ovarian): > 81.1 µM | GI50 (DU-145 prostate): 22.4 µM | TGI (DU-145 prostate): > 82.6 µM

CC1=C(C(=O)Nc2ccc(F)c(Cl)c2)C(c2cccc(Oc3ccccc3)c2)NC(=O)N1 (centres undefined)
GI50 (BT-549 breast): 15.3 µM | TGI (BT-549 breast): 31.1 µM | GI50 (MDA-MB-231 breast): 16 µM | TGI (MDA-MB-231 breast): 30.3 µM | GI50 (NCI/ADR-RES ovarian): 19 µM | TGI (NCI/ADR-RES ovarian): 37.2 µM | GI50 (DU-145 prostate): 13.4 µM | TGI (DU-145 prostate): 26.4 µM

CCCCCCCCCCCC[n+]1ccc(C(N)=O)cc1
GI50 (BT-549 breast): 1.93 µM | TGI (BT-549 breast): 4.7 µM | GI50 (MDA-MB-231 breast): 2.91 µM | TGI (MDA-MB-231 breast): 10.9 µM | GI50 (NCI/ADR-RES ovarian): > 100 µM | TGI (NCI/ADR-RES ovarian): > 100 µM | GI50 (DU-145 prostate): 4.6 µM | TGI (DU-145 prostate): 17.2 µM

O=C1C[C@H]2CC3(CC[C@H]2CN1)OCCO3
TGI (SNB-78 CNS): > 100 µM | TGI (M19-MEL melanoma): > 100 µM | TGI (DLD-1 colon): > 100 µM | TGI (DMS 273 small cell lung): > 100 µM

N#CN1CCC=C(c2cc3ccccc3[nH]2)C1
TGI (KM20L2 colon): > 448 µM | TGI (M19-MEL melanoma): > 448 µM | TGI (DLD-1 colon): > 448 µM | TGI (DMS 273 small cell lung): > 448 µM

CS(=O)(=O)Nc1cc(-c2ccc3ncnc(Nc4ccc5c(cnn5Cc5ccccc5F)c4)c3c2)cnc1Cl
GI50 (BT-549 breast): 1.57 µM | TGI (BT-549 breast): 8.73 µM | GI50 (MDA-MB-231 breast): 1.51 µM | TGI (MDA-MB-231 breast): > 100 µM | GI50 (NCI/ADR-RES ovarian): 8.32 µM | TGI (NCI/ADR-RES ovarian): > 100 µM | GI50 (DU-145 prostate): 2 µM | TGI (DU-145 prostate): > 38.2 µM

CCOC1C=CCCO1 (centres undefined)
TGI (MDA-MB-231 breast): > 100 µM | TGI (NCI/ADR-RES ovarian): > 100 µM | TGI (DU-145 prostate): > 100 µM

NCCCCN(Cc1nc2ccccc2[nH]1)[C@H]1CCCc2cccnc21
GI50 (BT-549 breast): 22.8 µM | TGI (BT-549 breast): > 100 µM | GI50 (MDA-MB-231 breast): 8.88 µM | TGI (MDA-MB-231 breast): 56.3 µM | GI50 (NCI/ADR-RES ovarian): 26.8 µM | TGI (NCI/ADR-RES ovarian): > 100 µM | GI50 (DU-145 prostate): 29.2 µM | TGI (DU-145 prostate): > 100 µM

CN(C)c1ccc(O)c2c1C[C@H]1C[C@H]3[C@H](N(C)C)C(=O)C(C(N)=O)=C(O)[C@@]3(O)C(=O)C1=C2O
GI50 (BT-549 breast): 4.14 µM | TGI (BT-549 breast): 20.1 µM | GI50 (MDA-MB-231 breast): 10.5 µM | TGI (MDA-MB-231 breast): 43.6 µM | GI50 (NCI/ADR-RES ovarian): 11.6 µM | TGI (NCI/ADR-RES ovarian): > 100 µM | GI50 (DU-145 prostate): 5.07 µM | TGI (DU-145 prostate): 73.6 µM

COc1ccc(/C=C/C(=O)c2cc3c(N)c(C(=O)Nc4ccccc4)sc3nc2C)cc1
GI50 (BT-549 breast): 0.797 µM | TGI (BT-549 breast): > 50 µM | GI50 (MDA-MB-231 breast): 0.377 µM | TGI (MDA-MB-231 breast): > 31.8 µM | GI50 (NCI/ADR-RES ovarian): 0.121 µM | GI50 (DU-145 prostate): 0.19 µM | TGI (DU-145 prostate): > 22.9 µM

S=C(Nc1ccccc1)N(Cc1ccccc1)c1ccccc1
TGI (BT-549 breast): 4.97 µM | TGI (MDA-MB-231 breast): > 100 µM | TGI (NCI/ADR-RES ovarian): > 100 µM | TGI (DU-145 prostate): 24.7 µM

CCOC(=O)C#Cc1c(CC(=O)OCC)nnn1[C@H]1O[C@@H](CO)[C@@H]2OC(C)(C)O[C@@H]21
GI50 (BT-549 breast): 9.1 µM | TGI (BT-549 breast): 21.2 µM | GI50 (MDA-MB-231 breast): 4.62 µM | TGI (MDA-MB-231 breast): 16.1 µM | GI50 (NCI/ADR-RES ovarian): 11.5 µM | TGI (NCI/ADR-RES ovarian): 36.5 µM | GI50 (DU-145 prostate): 10.2 µM | TGI (DU-145 prostate): 21.8 µM

N=C(N)c1ccc(-c2ccc(-c3cccs3)s2)nc1
GI50 (BT-549 breast): 4.79 µM | TGI (BT-549 breast): 16.3 µM | GI50 (MDA-MB-231 breast): 1.55 µM | TGI (MDA-MB-231 breast): 3.39 µM | GI50 (NCI/ADR-RES ovarian): 3.11 µM | TGI (NCI/ADR-RES ovarian): 14.5 µM | GI50 (DU-145 prostate): 1.8 µM | TGI (DU-145 prostate): 4.04 µM
